Measured values published in ChEMBL document CHEMBL2163249, “Exploration of natural compounds as sources of new bifunctional scaffolds targeting cholinesterases and beta amyloid aggregation: the case of chelerythrine” (Bioorg Med Chem, 2012).

How the values were obtained:
[1] = target: Cholinesterase (Equus caballus) (UniProt P81908); details: at 2 mg/mL
Description: Inhibition of horse BChE at 2 mg/ml by Ellman's method

[2] = target: Acetylcholinesterase (Electrophorus electricus) (UniProt O42275); details: at 2 mg/mL
Description: Inhibition of electric eel AChE at 2 mg/ml by Ellman's method

Sequence of Cholinesterase (Equus caballus) (P81908 whole entry): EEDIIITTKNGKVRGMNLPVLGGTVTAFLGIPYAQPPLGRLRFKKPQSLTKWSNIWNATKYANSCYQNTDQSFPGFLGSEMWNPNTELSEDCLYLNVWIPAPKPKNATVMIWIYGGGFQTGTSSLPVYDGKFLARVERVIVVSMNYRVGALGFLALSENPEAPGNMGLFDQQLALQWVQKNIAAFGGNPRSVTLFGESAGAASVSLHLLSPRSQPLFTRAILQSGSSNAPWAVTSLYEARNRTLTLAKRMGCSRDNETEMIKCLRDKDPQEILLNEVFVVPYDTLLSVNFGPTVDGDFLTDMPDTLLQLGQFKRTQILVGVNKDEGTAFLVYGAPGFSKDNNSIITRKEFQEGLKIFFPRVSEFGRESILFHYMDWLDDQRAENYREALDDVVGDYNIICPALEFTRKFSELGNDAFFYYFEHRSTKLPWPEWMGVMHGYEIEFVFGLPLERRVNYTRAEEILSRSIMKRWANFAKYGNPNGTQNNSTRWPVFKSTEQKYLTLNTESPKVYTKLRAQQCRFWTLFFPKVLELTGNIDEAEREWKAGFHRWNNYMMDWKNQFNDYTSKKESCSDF

| Compound | inhibition [1] | inhibition [2] |
| --- | --- | --- |
| O=c1cc(-c2ccc(O)cc2)oc2cc(O)c([C@@H]3O[C@H](CO)[C@@H](O)[C@H](O)[C@H]3O)c(O)c12 | 1.98% | 20.7% |
| CC[C@H](CC[C@@H](C)[C@H]1CC[C@H]2[C@@H]3CC=C4C[C@@H](O)CC[C@]4(C)[C@H]3CC[C@]12C)C(C)C | -1.87% | 13.8% |
| CO[C@@H]1[C@H](O)C[C@@H](O[C@@H]2C[C@H](Oc3cc4cc5c(c(O)c4c(O)c3C)C(=O)[C@@H](O[C@H]3C[C@@H](O[C@H]4C[C@@H](O[C@H]6C[C@](C)(O)[C@@H](OC(C)=O)[C@H](C)O6)[C@H](O)[C@@H](C)O4)[C@H](O)[C@@H](C)O3)[C@H]([C@H](OC)C(=O)[C@@H](O)[C@@H](C)O)C5)O[C@H](C)[C@@H]2OC(C)=O)O[C@@H]1C | 3.95% | 5.47% |
| CC1=CC(=O)C2=C(C)CC[C@@H]3[C@H](OC(=O)[C@H]3C)[C@@H]12 | 0.28% | -3.63% |
| O=c1cc(-c2ccc(O)cc2)oc2c(O[C@@H]3O[C@H](CO)[C@@H](O)[C@H](O)[C@H]3O)c(O)c(O[C@@H]3O[C@H](CO)[C@@H](O)[C@H](O)[C@H]3O)c(O)c12 | 1.92% | 22.2% |
| CC(C)=CC[C@@H](O)C1=CC(=O)c2c(O)ccc(O)c2C1=O | 3.58% | 15.7% |
| O=c1c(-c2ccc(O)cc2)coc2cc(O[C@@H]3O[C@H](CO)[C@@H](O)[C@H](O)[C@H]3O)ccc12 | -0.76% | 17.6% |
| CN1CCc2cc3c(cc2C(=O)Cc2ccc4c(c2C1)OCO4)OCO3 | 7.56% | 31.1% |
| COc1cc([C@@H]2CC(=O)c3c(O)cc(O)cc3O2)ccc1O | 3.1% | 29.5% |
| O=c1cc(-c2ccccc2)oc2cc(O)c(O)cc12 | 1.82% | 23.1% |
| C/C=C1/C[C@@H](C)[C@@](C)(O)C(=O)OCC2=CCN3CC[C@@H](OC1=O)[C@@H]23 | 19.2% | 7.46% |
| CCN1C[C@]2(C)CC[C@H](O)[C@]34C1[C@@H](C[C@H]23)[C@@]1(O)C[C@H](OC)[C@H]2C[C@@H]4[C@@H]1[C@H]2O | -5.97% | 20% |
| COC(=O)[C@H]1[C@H]2C[C@H]3c4[nH]c5cc(OC)ccc5c4CCN3C[C@H]2C[C@@H](OC(=O)c2cc(OC)c(OC)c(OC)c2)[C@@H]1OC | -8.07% | -2.45% |
| C1CCN2C[C@@H]3C[C@@H](CN4CCCC[C@@H]34)[C@H]2C1 | 5.31% | 4.72% |
| BLEOMYCIN | 10.8% | 10.2% |
| CC[C@H]1[C@@H]2C[C@H]3[C@@H]4N(C)c5ccccc5[C@]45C[C@@H]([C@@H]2[C@H]5O)N3[C@@H]1O | 22.3% | 29.8% |
| CC1(C)C2CCC1(C(=O)O)C(=O)C2 (stereo not drawn) | -2.51% | 16.7% |
| C=C(C)[C@@H]1CC=C(C(=O)O)CC1 | 3.58% | -3.9% |
| C=C1CC[C@H]2C(=C)CC[C@H]3C(=C)C(=O)O[C@@H]3[C@@H]12 | 10.7% | 4.06% |
| O=c1cc(-c2ccc(O)cc2)oc2cc(O)cc(O)c12 | 4.5% | 18.4% |
| C=C[C@](C)(O)CC[C@@H]1[C@@]2(C)CCCC(C)(C)[C@@H]2CC[C@@]1(C)O | -2.61% | 3.08% |
| CCN1C[C@]2(COC)CC[C@H](O)[C@@]34C5C[C@@H]6[C@@H](OC)C[C@](O)(C(CC23)C14)C5[C@H]6OC(C)=O (stereo partly drawn) | -0.23% | 28.9% |

| Compound | inhibition [1] | inhibition [2] |
| --- | --- | --- |
| Cc1cc(O)c2c(=O)c3c(O)cc(O)c4c5c(O)cc(O)c6c(=O)c7c(O)cc(C)c8c1c2c(c34)c(c78)c65 | 14.3% | -7.15% |
| COC(=O)[C@@H]1[C@H]2C[C@H]3c4[nH]c5ccccc5c4CCN3C[C@@H]2CC[C@@H]1O | -2.5% | 16.2% |
| CN1c2ccccc2C(=O)N2CCc3c([nH]c4ccccc34)[C@@H]21 | 26% | 12.4% |
| COc1ccc(C[C@H]2c3cc(OC)c(OC)cc3CC[N+]2(C)C)cc1OC | 2.85% | 28.5% |
| C/C=C(/C)C(=O)O[C@H]1C(C)=C2[C@H]([C@@H]1OC(=O)CCCCCCC)[C@@](C)(OC(C)=O)C[C@H](OC(=O)CCC)[C@@]1(O)[C@H]2OC(=O)[C@@]1(C)O | 0.82% | 9.89% |
| CO[C@H](C(=O)[C@@H](O)[C@@H](C)O)[C@@H]1Cc2cc3cc(O[C@H]4C[C@@H](O[C@H]5C[C@@H](O)[C@H](O)[C@@H](C)O5)[C@@H](O)[C@@H](C)O4)c(C)c(O)c3c(O)c2C(=O)[C@H]1O[C@H]1C[C@@H](O[C@H]2C[C@@H](O[C@H]3C[C@](C)(O)[C@H](O)[C@@H](C)O3)[C@H](O)[C@@H](C)O2)[C@H](O)[C@@H](O)O1 | 6.61% | -3.51% |
| C[C@@H]1O[C@@H](O[C@H]2[C@H](Oc3cc(O)c4c(c3)O[C@H](c3ccc(O)cc3)CC4=O)O[C@H](CO)[C@@H](O)[C@@H]2O)[C@H](O)[C@H](O)[C@H]1O | -5.49% | -3.38% |
| CC(=O)OC[C@@]1(O)C[C@@]23CC[C@@H]4c5ccoc5C=C[C@@]4(C)[C@@H]2CC[C@@H]1C3 | 1.7% | 14.1% |
| C/C=C(\C)C(=O)O[C@H]1CC(C)=CC(=O)[C@@]2(C)CC[C@@](O)(C(C)C)[C@H]12 | -1.66% | 16.6% |
| CC1(C)[C@@H](O)C[C@H]2[C@](C)(O)[C@@H]3CC[C@@H]4[C@@H](O)[C@@]3(C[C@@H](O)[C@@]21O)C[C@@]4(C)O | 4.52% | -8.91% |
| COc1cccc2c1C(=O)c1c(O)c3c(c(O)c1C2=O)C[C@@](O)(C(C)=O)C[C@@H]3O[C@H]1C[C@H](N)[C@H](O)[C@H](C)O1 | -0.13% | 18.1% |
| Cc1cc(Cc2cc(C)cc(C(C)(C)C)c2O)c(O)c(C(C)(C)C)c1 | 0.28% | -4.45% |
| CCCCCCCCCCCCCC(=O)O[C@@H]1[C@@H](C)[C@@]2(O)[C@@H](C=C(CO)C[C@@]3(O)C(=O)C(C)=C[C@@H]23)[C@H]2C(C)(C)[C@]12OC(C)=O | -0.91% | 12.9% |
| COc1cc([C@@H]2c3cc4c(cc3[C@H](O)[C@H]3COC(=O)[C@@H]23)OCO4)cc(OC)c1OC | -2.7% | 27.1% |
| c1ccc2c(c1)[nH]c1cnccc12 | 28.7% | -1.66% |
| O=C1C=C2C=C[C@@H]3C[C@@]2(O1)[C@H]1CCCCN31 | 6.85% | 7.44% |
| OC[C@@H]1CCCN2CCCC[C@H]12 | -7.44% | 1.61% |
| C/C=C(/C)C(=O)O[C@H]1C[C@@]2(C)O[C@H]2[C@@H](O)[C@@]2(C)CC[C@@](O)(C(C)C)[C@H]12 | -1.91% | 17.2% |
| C[C@@H]1CC[C@H]2[C@@H](C)C(=O)O[C@@H]3O[C@@]4(C)CC[C@@H]1[C@]32OO4 | 35.6% | 2.43% |
| CN1[C@@H]2CC[C@H]1C[C@@H](OC(=O)[C@H](CO)c1ccccc1)C2 | 3.5% | 15.5% |
| CO[C@@H]1C[C@@H](C[C@H]2CC[C@H](C)[C@H]([C@@H](C)C(=O)O)O2)O[C@]2(O[C@](C)([C@H]3CC[C@@](C)([C@@H]4O[C@@H]([C@H]5O[C@@](O)(CO)[C@H](C)C[C@@H]5C)C[C@@H]4C)O3)C[C@H]2C)[C@@H]1C | 4.98% | -7.25% |
| CN1[C@@H](CC(=O)c2ccccc2)CCC[C@H]1C[C@H](O)c1ccccc1 | 30.4% | -0.17% |
